# Data: patent US6407064B2, “Aminoalcohol derivative and medicament comprising the same” (Seikagaku Corporation, priority 1999, dated 2002)
# Assays:
# neurite = settings: literature; cited from earlier work
# [1] = system: cultured neurocytes of rat fetal cerebral cortex; experiment: Activity of accelerating synapse formation (intracellular calcium ion level, fura-2); format: cell-based; settings: relative value, L-PDMP regarded as 100; compound 20 μM; assay on 10th day of culture
# Description: The activity of accelerating synapse formation was determined by measuring change of an intracellular calcium ion level resulted from the synchronized spontaneous ignition of neurocytes which is considered to show synapse activities by means of an intracellular calcium ion multipoint observation system using a calcium ion fluorescence indicator, fura-2.
# Concretely, rat fetuses at the 18th day of pregnancy were taken out from Wistar rats (available from Japan SLC), and cerebral cortices of the fetuses were taken out and cut into small pieces. After having been treated with papain (manufactured by Worthington Biochemical) at 37° C. for 30 minutes, the pieces were suspended into a Dulbecco modified Eagle's medium containing 5% bovine neonatal serum and 5% equine serum and the cortices were dissociated into single cells with Cell Striner (70 μm, Falcon). Then, the cells were inoculated into a flexiperm plate coated with 0.5% polyethyleneimine (1.0×10^6 cells/500 μl/well), and was cultured in 7% CO2 incubator at 37° C. The medium was exchanged on 2nd, 5th, and 8th days after the culture had been started. The activity of the compound of the present invention was measured using the primary culture. The compound was added at the time when the medium was exchanged and the concentration of the compound was maintained to be 20 μM. Assay was carried out on 10th day after the culture had been started.
# (2) Measurement of Activity of Accelerating Synapse Formation
# Concretely, after the medium of each well where cells were cultured was substituted with basic salt solution (BSS), 3 μl of a DMSO solution (1 mg/ml) of a calcium ion fluorescence indicator fura-2 was added, and the whole was kept at 37° C. for 1 hour.
# neurocytes = settings: J. Neurochem. 67: 1821-1830, 1996; cited from earlier work
# [2] = system: enzyme for GQ1b synthesis; settings: Biochem. Biophys. Res. Commun. 237: 595-600 (1997); cited from earlier work
# [3] = system: ganglioside GM3, mouse B16 melanoma cells; experiment: Synthesized amount of ganglioside GM3 (HPTLC densitometry); format: cell-based; settings: relative value, control regarded as 100, test compound 25 μM, 24 hours
# Description: (§1) A liquid where the cells of mouse B16 melanoma were suspended was prepared with Dulbecco modified Eagle's medium containing 10% bovine fetal serum, inoculated into a culture flask (175 cm^2) in an amount of 0.8×10^7 cells/20 ml, and cultured in 5% CO2 incubator at 37° C. The treatment with a test compound (25 μM) was started through the exchange of three fourths of the medium 24 hours after the culture was started. Twenty-four hours after the treatment with the test compound was started, the culture mixture was treated with PBS containing 0.02% EDTA and PBS containing 0.25% trypsin successively to recover the cells.
# Then, a mixed solvent of chloroform:methanol=2:1 (4 ml) was added to the cell pellet and, after the subjection to an ultrasonication for 30 minutes, the cell pellet solution was allowed to stand at room temperature for a night and the supernatant was recovered. Furthermore, a mixed solvent of chloroform:methanol=1:1 (4 ml) was added to the residual pellet after the recovery of the supernatant, and a similar operation was carried out. The resulting supernatant was combined with the first supernatant and the whole was evaporated to dryness under a nitrogen stream. To the total lipid fraction was added a 0.1 N methanolic sodium hydroxide solution (2.0 ml) and the mixture was allowed to stand at 40° C. for 2 hours. Thereafter, 1 N hydrochloric acid (0.2 ml) was added thereto and the mixture was allowed to stand for 1.5 hours.
# Then, the mixture was washed with n-hexane (2 ml×2) and, after the lower layer thus washed was evaporated to dryness under a nitrogen stream, the residue was desalinated by gel filtration chromatography (Sephadex LH-20 (manufactured by Amersham Pharmacia Biotech), diameter of 10 mm, height of 120 mm) using chloroform:methanol=2:1 as the eluting solvent. […] After orcinol-sulfuric acid reagent had been sprayed on the plate, it was heated at 110° C. for 5 minutes and colored spot of ganglioside GM3 was quantitatively determined by means of densitometer (a measuring wavelength of 505 nm). […]
# [4] = system: enzyme for ganglioside GM3 synthesis, mouse B16 melanoma cell; experiment: Activity of enzyme for ganglioside GM3 synthesis (14C-Gal incorporated in total lipid fraction); format: cell-based; settings: relative value, control regarded as 100; test compound 24 μM, 24 hours; 14C-Gal incorporation
# Description: The gangliosides produced by mouse B16 melanoma cell are almost composed of ganglioside GM3. Therefore, the activity of the enzyme for ganglioside GM3 synthesis can be determined conveniently by measuring the amount of ^14C-Gal incorporated in a total lipid-extracted fraction through a liquid layer partition method.
# as §1, with “a 12-well plate” for “a culture flask (175 cm^2)”, “of 2.0×10^5 cells/ml/well,” for “of 0.8×10^7 cells/20 ml,”, “compound (24” for “compound (25”, “μM) and the addition of ^14C-Gal (22.2 kBq/11.7 nmol/6 μl/well) were” for “μM) was”, “of total amount” for “of three fourths”
# Then, a mixed solvent of chloroform:methanol=2:1 (3 ml) was added to the cell pellet and, after the subjection to an ultrasonication for 30 minutes, the supernatant was recovered. Furthermore, a mixed solvent of chloroform:methanol=1:1 (3 ml) was added to the residual pellet after the recovery of the supernatant, and a similar operation was carried out. The resulting supernatant was combined with the first supernatant and the whole was evaporated to dryness under a nitrogen stream. A desalinated water (1.0 ml) was added to the total lipid-extracted fraction. After having been subjected to an ultrasonication for 1 minute, the mixture was transferred into a dialysis tube and dialyzed against water for 2 days. The sample after the dialysis was transferred into a vial for liquid scintillation counter and, after the addition of scintillator, the activity of incorporating ^14C-Gal was measured on scintillation counter.
# The values of activity of the compounds of the present invention are shown as relative values obtained by calculation on the basis that the value of a control (a group where no test compound was added) is regarded as 100 in Table 3 below.
structure (smiles),measurement,setting,value
"CCCCCCCCCC(=O)N[C@@H](CN1CCOCC1)[C@@H](O)c1ccccc1 [L-PDMP, (1S,2S)-1-phenyl-2-decanoylamino-3-morpholino-1-propanol, reference compound]",effect on neurite extension,neurite,effect of accelerating neurite extension
same,Activity of synapse formation,[1],100.0
same,effect on ganglioside biosynthesis of neurocytes,neurocytes,accelerate ganglioside biosynthesis of neurocytes
same,effect on activity of enzyme for GQ1b synthesis,[2],increases the activity of an enzyme for GQ1b synthesis
same,Glycolipid content (Test Example 3),[3],100.7
same,Activity of accelerating glycolipid biosynthesis (Test Example 2),[4],95.2
